Results as given in BindingDB's records for doi:10.1016/0960-894X(96)00183-7 (1996).

Target: alpha-L-fucosidase (Bos taurus)
Assay: Compound was tested for inhibition of alpha-fucosidase from bovine kidney.

Structure (SMILES): O[C@H]1[C@H](O)[C@H](O)CN(Cc2ccccc2)C[C@H]1O [1-Benzyl-azepane-3,4,5,6-tetraol]
- Ki: 23.4 µM
